Changes are numbered by the printed parent chain. Entries after “also recorded” stand apart in the source; their conditions may differ.
Columns and labels:
EHD2(T72A) = target: T1, EHD2(T72A) (Mus musculus, UniProt Q8BH64, T72A); assay: ITC nucleotide binding to EHD2(T72A) P-loop mutant; conditions: ITC at 10° C.
T1 construct: Mouse EHD2 full-length protein and all mutants were expressed as N-terminal His-fusions followed by a PreScission cleavage site; His (N, cleaved yes); made in house; host or cells: Escherichia coli BL21 DE3 Rosetta
T1 sequence (Q8BH64 1-543 T72A): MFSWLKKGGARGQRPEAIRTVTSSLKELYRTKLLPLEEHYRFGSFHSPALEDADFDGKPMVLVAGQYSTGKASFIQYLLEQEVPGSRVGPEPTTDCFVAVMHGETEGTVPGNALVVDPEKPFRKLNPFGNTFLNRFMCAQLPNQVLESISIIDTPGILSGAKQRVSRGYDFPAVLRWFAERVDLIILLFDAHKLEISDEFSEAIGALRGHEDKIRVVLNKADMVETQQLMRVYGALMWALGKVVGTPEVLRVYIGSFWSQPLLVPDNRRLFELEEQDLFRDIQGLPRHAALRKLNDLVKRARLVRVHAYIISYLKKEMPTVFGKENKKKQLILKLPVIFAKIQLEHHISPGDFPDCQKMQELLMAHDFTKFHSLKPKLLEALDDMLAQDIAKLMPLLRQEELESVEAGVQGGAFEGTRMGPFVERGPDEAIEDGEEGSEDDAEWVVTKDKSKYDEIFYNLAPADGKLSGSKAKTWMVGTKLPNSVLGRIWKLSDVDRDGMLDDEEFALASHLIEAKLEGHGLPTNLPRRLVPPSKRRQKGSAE
Experimental: (§1) Amino acid numbering corresponds to mouse EHD2. b, EHD2 binds to adenine nucleotides, as determined by ITC. For clarity, ΔΔH=ΔHn−ΔH1 is plotted. […] Images were acquired close to the basal cell surface. f, Nucleotide hydrolysis was measured by HPLC in the absence (empty symbols) or presence of Folch liposomes (filled symbols). Data represent mean and standard deviation for two (intrinisic reactions) or three (stimulated reactions) independent experiments.
(§2) ITC measurements were performed at 10° C. in 20 mM HEPES (pH 7.5), 300 mM NaCl, 2 mM MgCl2. Liposome binding assays were performed as described previously (www.endocytosis.org). Multiple turnover ATPase assays were performed in 20 mM HEPES (pH 7.5), 135 mM NaCl, 15 mM KCl, 1 mM MgCl2 at 30° C. with 10 μM EHD2 (or mutants) as enzyme and 100 μM ATP as substrate, in the absence or presence of 1 mg/ml Folch liposomes (Sigma-Aldrich).
Mouse full-length EHD2 was expressed in bacteria and purified to homogeneity (FIG. 5). The purified protein was nucleotide-free as judged by HPLC analysis. […] It was previously reported that EHDs—despite having a predicted G-domain—bind to adenine nucleotides^15. […] We still refer to this domain as a G-domain because the sequence and fold (see below) are clearly similar to other G-domains. […]

T94A mutant of EHD2 = target: T2, T94A mutant of EHD2 (Mus musculus, UniProt Q8BH64, T94A); assay: ITC nucleotide binding to EHD2 T94A mutant; conditions: ITC as in FIG. 1b
T2 construct: Mouse EHD2 full-length protein and all mutants were expressed as N-terminal His-fusions followed by a PreScission cleavage site; His (N, cleaved yes); made in house; host or cells: Escherichia coli BL21 DE3 Rosetta
T2 sequence (Q8BH64 1-543 T94A): T1 sequence (Q8BH64 1-543 T72A) with A72T, T94A
Experimental: Nucleotide hydrolysis was measured as described in FIG. 1f. In vitro tubulation activity of PS liposomes was analysed as described in FIG. 1d. f, EGFP-tagged mutants were over-expressed in HeLa cells. […] For each construct, three independent experiments with ≈50 cells/experiments were analysed.
as §2
In small GTPases, the role of positioning the water molecule is assigned to a catalytic glutamine from switch II^26. We studied the role of ATP hydrolysis to gain insights into the function of EHD2 in vivo. […] To confirm the role of ATP hydrolysis in EHD function we re-introduced a catalytic glutamine in the active site, at the position normally found for small GTPases (I157Q). […] Many of these puncta were highly mobile as determined by live-cell microscopy.

EHD2 = target: T3, EHD2 (Mus musculus, UniProt Q8BH64); assay: ITC nucleotide binding to EHD2; conditions: ITC at 10° C.
T3 construct: Mouse EHD2 full-length protein and all mutants were expressed as N-terminal His-fusions followed by a PreScission cleavage site; His (N, cleaved yes); made in house; host or cells: Escherichia coli BL21 DE3 Rosetta
T3 sequence (Q8BH64 1-543): T1 sequence (Q8BH64 1-543 T72A) with A72T
Experimental: as §1, §2
Mouse full-length EHD2 was expressed in bacteria and purified to homogeneity (FIG. 5). The purified protein was nucleotide-free as judged by HPLC analysis. […] It was previously reported that EHDs—despite having a predicted G-domain—bind to adenine nucleotides^15. […] We still refer to this domain as a G-domain because the sequence and fold (see below) are clearly similar to other G-domains. […] Using synthetic liposomes containing various different phosphatidyl-inositols (PI) (FIG. 1c) we observed best binding to liposomes containing PI(4,5)bisphosphate (PIP2).

In the case of `Nc1ncnc2c1ncn2[C@@H]1O[C@H](COP(=O)(O)OP(=O)(O)OP(O)(O)=S)[C@@H](O)[C@H]1O` [ATP-γ-S], the “binding to EHD2(T72A) by ITC” value (EHD2(T72A)) is reported as “no binding observed; also recorded: prevented binding”, the “affinity of the T94A mutant to ATP-γ-S by ITC” value (T94A mutant of EHD2) is reported as “nearly wild-type affinity” and the “n (fitted ITC value), nucleotide binding to EHD2” value (EHD2) is reported as 0.96. For the same molecule, the Kd (EHD2; 20 mM HEPES (pH 7.5), 300 mM NaCl, 2 mM MgCl2, read-out: affinity to EHD2 determined by ITC) was 13 ± 3 µM.

Reference: patent US20120214173A1, “Methods of Identifying Modulators of an Ehd Polypeptide” (priority 2007, published 2012)
